Results from the supplement of paper PMC6045584.
± gives the standard deviation of the averaged measurements.

Assays:
[1] = compound: COc1ccc(C2=N[C@@H](c3ccc(Cl)cc3)[C@@H](c3ccc(Cl)cc3)N2C(=O)N2CCNC(=O)C2)c(OC(C)C)c1 [NUTLIN3]; assay: surviving fraction relative to DMSO-only wells; higher = less growth inhibition; conditions: exposure time: 5 days
How it was run: (§1)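 At 250–500 cells per well in 384-well plates, log-phase tumour cell lines were seeded and, 24 hours on, exposed continuously for five days to inhibitors at 0.5, 1, 5, 10, 50, 100, 500 and 1000 nM. Viability readout was CellTiter-Glo luminescence, reported as surviving fraction normalised to the median of DMSO-only wells.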

[2] = compound: CN(C)CC[C@H](CSc1ccccc1)Nc1ccc(S(=O)(=O)NC(=O)c2ccc(N3CCN(Cc4ccccc4-c4ccc(Cl)cc4)CC3)cc2)cc1[N+](=O)[O-] [ABT-737]; assay: as above; conditions: exposure time: 5 days
How it was run: as §1

Test System: 22RV1 PROSTATE
- surviving fraction ([1]; 0.5 nM): 1.01 ± 0.046
- surviving fraction ([1]; 1 nM): 1.04 ± 0.013
- surviving fraction ([1]; 5 nM): 0.96 ± 0.068
- surviving fraction ([1]; 10 nM): 0.99367 ± 0.00058
- surviving fraction ([1]; 50 nM): 0.981 ± 0.079
- surviving fraction ([1]; 100 nM): 1.01 ± 0.074
- surviving fraction ([1]; 500 nM): 0.95 ± 0.062
- surviving fraction ([1]; 1000 nM): 0.777 ± 0.047
- surviving fraction ([2]; 0.5 nM): 0.997 ± 0.07
- surviving fraction ([2]; 1 nM): 1.13 ± 0.22
- surviving fraction ([2]; 5 nM): 1.03 ± 0.063
- surviving fraction ([2]; 10 nM): 0.995 ± 0.079
- surviving fraction ([2]; 50 nM): 1.07 ± 0.086
- surviving fraction ([2]; 100 nM): 1.03 ± 0.13
- surviving fraction ([2]; 500 nM): 1.1 ± 0.042
- surviving fraction ([2]; 1000 nM): 0.96 ± 0.097

Test System: KPD BONE
- surviving fraction ([1]; 0.5 nM): 0.968 ± 0.042
- surviving fraction ([1]; 1 nM): 0.966 ± 0.049
- surviving fraction ([1]; 5 nM): 1.05 ± 0.064
- surviving fraction ([1]; 10 nM): 0.987 ± 0.023
- surviving fraction ([1]; 50 nM): 1.03 ± 0.061
- surviving fraction ([1]; 100 nM): 1.01 ± 0.098
- surviving fraction ([1]; 500 nM): 1.01 ± 0.017
- surviving fraction ([1]; 1000 nM): 0.962 ± 0.075
- surviving fraction ([2]; 0.5 nM): 1.06 ± 0.038
- surviving fraction ([2]; 1 nM): 1.02 ± 0.049
- surviving fraction ([2]; 5 nM): 1.11 ± 0.03
- surviving fraction ([2]; 10 nM): 1.13 ± 0.069
- surviving fraction ([2]; 50 nM): 1.07 ± 0.017
- surviving fraction ([2]; 100 nM): 1.12 ± 0.21
- surviving fraction ([2]; 500 nM): 0.839 ± 0.023
- surviving fraction ([2]; 1000 nM): 0.691 ± 0.042

Test System: HUO3N1 BONE
- surviving fraction ([1]; 0.5 nM): 1.07 ± 0.046
- surviving fraction ([1]; 1 nM): 0.988 ± 0.032
- surviving fraction ([1]; 5 nM): 1.039 ± 0.0087
- surviving fraction ([1]; 10 nM): 1 ± 0.034
- surviving fraction ([1]; 50 nM): 1.09 ± 0.032
- surviving fraction ([1]; 100 nM): 1.03 ± 0.032
- surviving fraction ([1]; 500 nM): 1.01 ± 0.068
- surviving fraction ([1]; 1000 nM): 1.04 ± 0.033
- surviving fraction ([2]; 0.5 nM): 1.03 ± 0.027
- surviving fraction ([2]; 1 nM): 1.07 ± 0.012
- surviving fraction ([2]; 5 nM): 1.1 ± 0.041
- surviving fraction ([2]; 10 nM): 1.1 ± 0.035
- surviving fraction ([2]; 50 nM): 1.09 ± 0.074
- surviving fraction ([2]; 100 nM): 1.05 ± 0.039
- surviving fraction ([2]; 500 nM): 0.994 ± 0.064
- surviving fraction ([2]; 1000 nM): 0.943 ± 0.02

Test System: OSHN BONE
- surviving fraction ([1]; 0.5 nM): 1.06 ± 0.036
- surviving fraction ([1]; 1 nM): 1.05 ± 0.057
- surviving fraction ([1]; 5 nM): 1.06 ± 0.034
- surviving fraction ([1]; 10 nM): 1.05 ± 0.044
- surviving fraction ([1]; 50 nM): 1.09 ± 0.058
- surviving fraction ([1]; 100 nM): 1.07 ± 0.033
- surviving fraction ([1]; 500 nM): 1.08 ± 0.034
- surviving fraction ([1]; 1000 nM): 1.07 ± 0.029
- surviving fraction ([2]; 0.5 nM): 1.09 ± 0.026
- surviving fraction ([2]; 1 nM): 1.1 ± 0.018
- surviving fraction ([2]; 5 nM): 1.08 ± 0.014
- surviving fraction ([2]; 10 nM): 1.09 ± 0.014
- surviving fraction ([2]; 50 nM): 1.11 ± 0.028
- surviving fraction ([2]; 100 nM): 1.11 ± 0.022
- surviving fraction ([2]; 500 nM): 1.02 ± 0.049
- surviving fraction ([2]; 1000 nM): 0.998 ± 0.035

Test System: C33A CERVIX
- surviving fraction ([1]; 0.5 nM): 0.888 ± 0.04
- surviving fraction ([1]; 1 nM): 0.928 ± 0.034
- surviving fraction ([1]; 5 nM): 0.919 ± 0.084
- surviving fraction ([1]; 10 nM): 0.905 ± 0.039
- surviving fraction ([1]; 50 nM): 0.978 ± 0.094
- surviving fraction ([1]; 100 nM): 1.04 ± 0.055
- surviving fraction ([1]; 500 nM): 0.959 ± 0.068
- surviving fraction ([1]; 1000 nM): 1.03 ± 0.094
- surviving fraction ([2]; 0.5 nM): 0.932 ± 0.1
- surviving fraction ([2]; 1 nM): 0.973 ± 0.088
- surviving fraction ([2]; 5 nM): 1.08 ± 0.013
- surviving fraction ([2]; 10 nM): 1.08 ± 0.12
- surviving fraction ([2]; 50 nM): 1.02 ± 0.14
- surviving fraction ([2]; 100 nM): 1.1 ± 0.09
- surviving fraction ([2]; 500 nM): 0.927 ± 0.11
- surviving fraction ([2]; 1000 nM): 1.04 ± 0.15

Test System: SUM149 BREAST
- surviving fraction ([1]; 0.5 nM): 1.03 ± 0.098
- surviving fraction ([1]; 1 nM): 1.12 ± 0.052
- surviving fraction ([1]; 5 nM): 1.18 ± 0.053
- surviving fraction ([1]; 10 nM): 1.15 ± 0.085
- surviving fraction ([1]; 50 nM): 1.08 ± 0.075
- surviving fraction ([1]; 100 nM): 1.13 ± 0.11
- surviving fraction ([1]; 500 nM): 1.04 ± 0.047
- surviving fraction ([1]; 1000 nM): 1.01 ± 0.092
- surviving fraction ([2]; 0.5 nM): 1.02 ± 0.036
- surviving fraction ([2]; 1 nM): 1.07 ± 0.023
- surviving fraction ([2]; 5 nM): 1.1 ± 0.061
- surviving fraction ([2]; 10 nM): 1.08 ± 0.051
- surviving fraction ([2]; 50 nM): 0.952 ± 0.058
- surviving fraction ([2]; 100 nM): 1.07 ± 0.075
- surviving fraction ([2]; 500 nM): 0.97 ± 0.049
- surviving fraction ([2]; 1000 nM): 0.961 ± 0.056

Test System: ASKA SYNOVIAL
- surviving fraction ([1]; 0.5 nM): 1.04 ± 0.04
- surviving fraction ([1]; 1 nM): 1.13 ± 0.039
- surviving fraction ([1]; 5 nM): 1.2 ± 0.055
- surviving fraction ([1]; 10 nM): 1.03 ± 0.015
- surviving fraction ([1]; 50 nM): 1.02 ± 0.064
- surviving fraction ([1]; 100 nM): 1.05 ± 0.041
- surviving fraction ([1]; 500 nM): 0.748 ± 0.035
- surviving fraction ([1]; 1000 nM): 0.512 ± 0.014
- surviving fraction ([2]; 0.5 nM): 1.15 ± 0.031
- surviving fraction ([2]; 1 nM): 1.19 ± 0.044
- surviving fraction ([2]; 5 nM): 1.2 ± 0.027
- surviving fraction ([2]; 10 nM): 1.16 ± 0.047
- surviving fraction ([2]; 50 nM): 1.1 ± 0.05
- surviving fraction ([2]; 100 nM): 1.11 ± 0.076
- surviving fraction ([2]; 500 nM): 0.914 ± 0.084
- surviving fraction ([2]; 1000 nM): 0.79 ± 0.066

Test System: SIHA CERVIX
- surviving fraction ([1]; 0.5 nM): 1.05 ± 0.062
- surviving fraction ([1]; 1 nM): 0.991 ± 0.053
- surviving fraction ([1]; 5 nM): 1.01 ± 0.12
- surviving fraction ([1]; 10 nM): 1.07 ± 0.071
- surviving fraction ([1]; 50 nM): 1.05 ± 0.073
- surviving fraction ([1]; 100 nM): 1.2 ± 0.05
- surviving fraction ([1]; 500 nM): 1.11 ± 0.15
- surviving fraction ([1]; 1000 nM): 1.14 ± 0.11
- surviving fraction ([2]; 0.5 nM): 1.02 ± 0.017
- surviving fraction ([2]; 1 nM): 1.1 ± 0.052
- surviving fraction ([2]; 5 nM): 1.12 ± 0.033
- surviving fraction ([2]; 10 nM): 1.08 ± 0.14
- surviving fraction ([2]; 50 nM): 1.14 ± 0.056
- surviving fraction ([2]; 100 nM): 1.2 ± 0.087
- surviving fraction ([2]; 500 nM): 1.19 ± 0.056
- surviving fraction ([2]; 1000 nM): 1.14 ± 0.043

Test System: SUM159 BREAST
- surviving fraction ([1]; 0.5 nM): 1.07 ± 0.059
- surviving fraction ([1]; 1 nM): 1.05 ± 0.04
- surviving fraction ([1]; 5 nM): 0.982 ± 0.076
- surviving fraction ([1]; 10 nM): 0.991 ± 0.041
- surviving fraction ([1]; 50 nM): 1.03 ± 0.027
- surviving fraction ([1]; 100 nM): 0.998 ± 0.08
- surviving fraction ([1]; 500 nM): 0.946 ± 0.17
- surviving fraction ([1]; 1000 nM): 0.916 ± 0.25
- surviving fraction ([2]; 0.5 nM): 1.1 ± 0.018
- surviving fraction ([2]; 1 nM): 1.1 ± 0.028
- surviving fraction ([2]; 5 nM): 1.12 ± 0.027
- surviving fraction ([2]; 10 nM): 1.09 ± 0.026
- surviving fraction ([2]; 50 nM): 1.095 ± 0.006
- surviving fraction ([2]; 100 nM): 1.09 ± 0.021
- surviving fraction ([2]; 500 nM): 1.11 ± 0.018
- surviving fraction ([2]; 1000 nM): 1.08 ± 0.014

Test System: HOS BONE
- surviving fraction ([1]; 0.5 nM): 1.011 ± 0.0078
- surviving fraction ([1]; 1 nM): 1.03 ± 0.014
- surviving fraction ([1]; 5 nM): 1.008 ± 0.01
- surviving fraction ([1]; 10 nM): 0.994 ± 0.02
- surviving fraction ([1]; 50 nM): 1.06 ± 0.02
- surviving fraction ([1]; 100 nM): 1.05 ± 0.01
- surviving fraction ([1]; 500 nM): 1.057 ± 0.0091
- surviving fraction ([1]; 1000 nM): 1.09 ± 0.021
- surviving fraction ([2]; 0.5 nM): 1.01 ± 0.028
- surviving fraction ([2]; 1 nM): 1.03 ± 0.013
- surviving fraction ([2]; 5 nM): 1.03 ± 0.026
- surviving fraction ([2]; 10 nM): 1.03 ± 0.02
- surviving fraction ([2]; 50 nM): 1.06 ± 0.016
- surviving fraction ([2]; 100 nM): 1.084 ± 0.0046
- surviving fraction ([2]; 500 nM): 1.08 ± 0.046
- surviving fraction ([2]; 1000 nM): 1.03 ± 0.021

Test System: LM7 BONE
- surviving fraction ([1]; 0.5 nM): 0.99 ± 0.075
- surviving fraction ([1]; 1 nM): 0.977 ± 0.082
- surviving fraction ([1]; 5 nM): 1.05 ± 0.025
- surviving fraction ([1]; 10 nM): 1.07 ± 0.14
- surviving fraction ([1]; 50 nM): 0.987 ± 0.065
- surviving fraction ([1]; 100 nM): 1.08 ± 0.046
- surviving fraction ([1]; 500 nM): 1.03 ± 0.1
- surviving fraction ([1]; 1000 nM): 0.994 ± 0.05
- surviving fraction ([2]; 0.5 nM): 0.97 ± 0.065
- surviving fraction ([2]; 1 nM): 1.03 ± 0.09
- surviving fraction ([2]; 5 nM): 1.11 ± 0.04
- surviving fraction ([2]; 10 nM): 1.1 ± 0.096
- surviving fraction ([2]; 50 nM): 1.08 ± 0.061
- surviving fraction ([2]; 100 nM): 1.13 ± 0.057
- surviving fraction ([2]; 500 nM): 0.921 ± 0.095
- surviving fraction ([2]; 1000 nM): 0.905 ± 0.043
